Patent US20250333397A1 (REMIX THERAPEUTICS INC., priority 2021, published 2025)
Where two headings read alike, the source gives them in different places.

Experiments:
Type in all cases: cell-based, human
HTT mRNA = assay: RT-qPCR splicing assay, HTT canonical (CJ) and alternative (AJ) junction mRNA; details: Homo sapiens; for AC50: read-out: HTT AJ (AC50, increase in AJ mRNA)
Outline: (§1)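 A673 or K562 cells were treated 24 h at 37 °C with an 11-point 3-fold compound dilution series, top dose 10 uM final, DMSO ≤0.25%. Lysates went to one-step RT-qPCR for canonical (CJ) and alternative-exon (AJ) junctions; ΔCt vs GAPDH, GUSB or PPIA, normalized to DMSO, as 2^(-ΔΔCt).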

MYB mRNA = assay: RT-qPCR splicing assay, MYB canonical (CJ) and alternative (AJ) junction mRNA; details: Homo sapiens; for AC50: read-out: MYB AJ (AC50, increase in AJ mRNA)
Outline: as §1

SMN2 mRNA = assay: RT-qPCR splicing assay panel, SMN2 canonical junction (CJ) mRNA; details: Homo sapiens
Outline: as §1

Target C mRNA = assay: RT-qPCR splicing assay panel, Target C canonical junction (CJ) mRNA; details: Homo sapiens
Outline: as §1

[1] = 24 h, Table 3A, A673 or K562 cells, 24 h treatment
[2] = 24 h, Table 3A, A673 or K562 cells, 24 h treatment, read-out: HTT CJ (IC50, decrease in CJ mRNA)
[3] = canonical junction (CJ) mRNA, RT-qPCR panel, Table 4A, read-out: HTT, decrease in CJ mRNA levels, IC50
[4] = 24 h, Table 3A, A673 or K562 cells, 24 h treatment, read-out: MYB CJ (IC50, decrease in CJ mRNA)
[5] = canonical junction (CJ) mRNA, RT-qPCR panel, Table 4A, read-out: MYB, decrease in CJ mRNA levels, IC50
[6] = canonical junction (CJ) mRNA, RT-qPCR panel, Table 4A, read-out: SMN2, decrease in CJ mRNA levels, IC50
[7] = canonical junction (CJ) mRNA, RT-qPCR panel, Table 4A, read-out: Target C, decrease in CJ mRNA levels, IC50
[8] = 24 h, Table 3B, A673 or K562 cells, 24 h treatment
[9] = 24 h, Table 3B, A673 or K562 cells, 24 h treatment, read-out: HTT CJ (IC50, decrease in CJ mRNA)
[10] = Table 4B, gene panel, read-out: HTT (IC50, decrease in CJ mRNA levels)
[11] = 24 h, Table 3B, A673 or K562 cells, 24 h treatment, read-out: MYB CJ (IC50, decrease in CJ mRNA)
[12] = Table 4B, gene panel, read-out: MYB (IC50, decrease in CJ mRNA levels)
[13] = Table 4B, gene panel, read-out: SMN2 (IC50, decrease in CJ mRNA levels)
[14] = Table 4B, gene panel, read-out: Target C (IC50, decrease in CJ mRNA levels)

IC50 (HTT mRNA; [2]) [nM] | IC50 (HTT mRNA; [3]) [nM] | IC50 (MYB mRNA; [4]) [nM] | IC50 (MYB mRNA; [5]) [nM] | IC50 (SMN2 mRNA; [6]) [nM] | IC50 (Target C mRNA; [7]) [nM] | IC50 (HTT mRNA; [9]) [nM] | IC50 (HTT mRNA; [10]) [nM] | IC50 (MYB mRNA; [11]) [nM] | IC50 (MYB mRNA; [12]) [nM] | IC50 (SMN2 mRNA; [13]) [nM] | IC50 (Target C mRNA; [14]) [nM] | Structure (SMILES) | AC50 (HTT mRNA; [1]) [nM] | AC50 (MYB mRNA; [1]) [nM] | AC50 (HTT mRNA; [8]) [nM] | AC50 (MYB mRNA; [8]) [nM]
< 100 | < 100 | 100 to 1000 | 100 to 1000 | < 100 | 100 to 1000 |  |  |  |  |  |  | COc1cc(-c2ccc(-c3ccc(N4CC[C@@](C)(NC5CCC5)C4)nn3)c(O)c2)ncn1 [Compound 366, 2-{6-[(3R)-3-(cyclobutylamino)-3-methylpyrrolidin-1-yl]pyridazin-3-yl}-5-(6-methoxypyrimidin-4-yl)phenol] | < 100 | 100 to 1000 |  | 
> 10000 | > 10000 | > 10000 | > 10000 | 1000 to 10000 | > 10000 |  |  |  |  |  |  | CCOc1cc(-c2ccc(-c3ccc(N4CC[C@@H](NC5CCC5)C4)nn3)c(O)c2)cnn1 [Compound 301] | > 10000 | > 10000 |  | 
< 100 | < 100 | 100 to 1000 | 100 to 1000 | < 100 | 100 to 1000 |  |  |  |  |  |  | COc1cc(-c2cc(O)c(-c3ccc(N4CC[C@@H](N[C@H]5C[C@H](F)C5)C4)nn3)cc2F)cnn1 [Compound 232] | 100 to 1000 | 100 to 1000 |  | 
 |  |  |  |  |  | < 100 | < 100 | 100 to 1000 | 100 to 1000 | < 100 | 100 to 1000 | Cc1nc2cc(O)c(-c3ccc(N4CC[C@@H](NC(C)(C)C)C4)nn3)cc2o1 [Compound 812] |  |  | < 100 | 100 to 1000
< 100 | < 100 | 100 to 1000 | 100 to 1000 | < 100 | < 100 |  |  |  |  |  |  | Cc1ncc(-c2cc(O)c(-c3ccc(N4CC[C@](C)(NCC5CC5)C4)nn3)cc2F)s1 (single isomer, unassigned) [Compound 400] | < 100 | 100 to 1000 |  | 
1000 to 10000 | 1000 to 10000 | 1000 to 10000 | 1000 to 10000 | 1000 to 10000 | 1000 to 10000 |  |  |  |  |  |  | COc1cc(-c2ccc(-c3nnc(N4CC[C@H](NC5CCC5)C4)cc3C)c(O)c2)cnn1 [Compound 450, (S)-2-(6-(3-(cyclobutylamino)pyrrolidin-1-yl)-4-methylpyridazin-3-yl)-5-(6-methoxypyridazin-4-yl)phenol] | 1000 to 10000 | 1000 to 10000 |  | 
< 100 | < 100 | < 100 | < 100 | < 100 | < 100 |  |  |  |  |  |  | Cc1ncc(-c2cc(O)c(-c3ccc(N4CC[C@@H](N(C)C5CCC5)C4)nn3)cc2F)s1 [Compound 269] | < 100 | 100 to 1000 |  | 
< 100 | < 100 | 100 to 1000 | 100 to 1000 | < 100 | 100 to 1000 |  |  |  |  |  |  | COc1cc(-c2cc(O)c(-c3ccc(N4CC[C@H](NC5CC5)C4)nn3)cc2F)cnn1 [Compound 214, 2-{6-[(3S)-3-(cyclopropylamino)pyrrolidin-1-yl]pyridazin-3-yl}-4-fluoro-5-(6-methoxypyridazin-4-yl)phenol] | < 100 | 100 to 1000 |  | 
 |  |  |  |  |  | 100 to 1000 | 100 to 1000 | 1000 to 10000 | 1000 to 10000 | 100 to 1000 | 1000 to 10000 | Cc1nc2cc(O)c(-c3ccc(N4CC[C@H](NC(C)(C)C)C4)nn3)cc2o1 [Compound 813] |  |  | 1000 to 10000 | 1000 to 10000
< 100 | < 100 | 100 to 1000 | 100 to 1000 | < 100 | 100 to 1000 |  |  |  |  |  |  | COc1cc(-c2ccc(-c3ccc(N4CC[C@@H](NC5CCC5)C4)nn3)c(O)c2)cnn1 [Compound 264] | 100 to 1000 | 100 to 1000 |  | 
> 10000 | > 10000 | > 10000 | > 10000 | 1000 to 10000 | > 10000 |  |  |  |  |  |  | Oc1cc(-c2cnc(C3CC3)s2)c(F)cc1-c1ccc(N2CCC(NC3CCC3)C2)nn1 (centres unmarked) [Compound 444] | > 10000 | > 10000 |  | 
< 100 | < 100 | 100 to 1000 | 100 to 1000 | < 100 | 100 to 1000 |  |  |  |  |  |  | COc1cc(-c2cc(O)c(-c3ccc(N4CC[C@H](NC5(C)CCC5)C4)nn3)cc2F)cnn1 [Compound 299] | < 100 | 100 to 1000 |  | 
< 100 | < 100 | < 100 | < 100 | < 100 | < 100 |  |  |  |  |  |  | CNc1cc(-c2ccc(-c3ccc(N4CC[C@@H](NC(C)(C)C)C4)nn3)c(O)c2)ncn1 [Compound 437, 2-{6-[(3R)-3-(tert-butylamino)pyrrolidin-1-yl]pyridazin-3-yl}-5-[6-(methylamino)pyrimidin-4-yl]phenol] | < 100 | < 100 |  | 
100 to 1000 | 100 to 1000 | 1000 to 10000 | 1000 to 10000 | 100 to 1000 | 1000 to 10000 |  |  |  |  |  |  | Oc1cc(-c2cnc(C(F)F)s2)c(F)cc1-c1ccc(N2CCC(NC3CCC3)C2)nn1 (centres unmarked) [Compound 389] | 1000 to 10000 | 1000 to 10000 |  | 
< 100 | < 100 | < 100 | < 100 | < 100 | < 100 |  |  |  |  |  |  | Cc1ncc(-c2cc(O)c(-c3ccc(N4CC[C@@H](N(C)C(C)(C)C)C4)nn3)cc2F)s1 [Compound 339, 2-{6-[(3R)-3-[tert-butyl(methyl)amino]pyrrolidin-1-yl]pyridazin-3-yl}-4-fluoro-5-(2-methyl-1,3-thiazol-5-yl)phenol] | < 100 | < 100 |  | 
< 100 | < 100 | 100 to 1000 | 100 to 1000 | < 100 | 100 to 1000 |  |  |  |  |  |  | CCN(C1CCC1)[C@H]1CCN(c2ccc(-c3ccc(-c4cnnc(OC)c4)cc3O)nn2)C1 [Compound 276] | 100 to 1000 | 100 to 1000 |  | 
100 to 1000 | 100 to 1000 | 1000 to 10000 | 1000 to 10000 | < 100 | 1000 to 10000 |  |  |  |  |  |  | COc1cc(-c2cc(O)c(-c3ccc(N4CC[C@@H](NC5CCC5)C4)nn3)cc2F)cnn1 [Compound 230, 2-{6-[(3R)-3-(cyclobutylamino)pyrrolidin-1-yl]pyridazin-3-yl}-4-fluoro-5-(6-methoxypyridazin-4-yl)phenol] | 100 to 1000 | 1000 to 10000 |  | 
100 to 1000 | 100 to 1000 | 1000 to 10000 | 1000 to 10000 | 100 to 1000 | 1000 to 10000 |  |  |  |  |  |  | COc1cc(-c2ccc(-c3ccc(N4CC[C@@H](N[C@H]5C[C@H](F)C5)C4)nn3)c(O)c2)ncn1 [Compound 427] | 100 to 1000 | 1000 to 10000 |  | 
100 to 1000 | 100 to 1000 | 1000 to 10000 | 1000 to 10000 | < 100 | 1000 to 10000 |  |  |  |  |  |  | Cc1ccc(-c2ccc(-c3ccc(N4CC[C@H](NC5CCC5)C4)nn3)c(O)c2)cn1 [Compound 281] | 100 to 1000 | 1000 to 10000 |  | 
100 to 1000 | 100 to 1000 | 1000 to 10000 | 1000 to 10000 | 100 to 1000 | 100 to 1000 |  |  |  |  |  |  | Cc1nc2ccc(-c3ccc(-c4ccc(N5CCC(NC6CCC6)C5)nn4)c(O)c3)cc2o1 (centres unmarked) [Compound 316] | 100 to 1000 | 100 to 1000 |  | 
1000 to 10000 | 1000 to 10000 | 1000 to 10000 | 1000 to 10000 | 100 to 1000 | > 10000 |  |  |  |  |  |  | Oc1cc(-c2cnnc(C3CC3)c2)ccc1-c1ccc(N2CC[C@H](NC3CCC3)C2)nn1 [Compound 280] | 1000 to 10000 | > 10000 |  | 
100 to 1000 | 100 to 1000 | 100 to 1000 | 100 to 1000 | 100 to 1000 | 1000 to 10000 |  |  |  |  |  |  | Cc1ccc(-c2cc(O)c(-c3ccc(N4CC[C@H](NC5CCC5)C4)nn3)cc2F)cn1 [Compound 223, 2-{6-[(3S)-3-(cyclobutylamino)pyrrolidin-1-yl]pyridazin-3-yl}-4-fluoro-5-(6-methylpyridin-3-yl)phenol] | 100 to 1000 | 100 to 1000 |  | 
